The record followed here is ChEMBL document CHEMBL3991601, “The target landscape of clinical kinase drugs” (Science, 2017).

Test [1] deals with T1, Serine/threonine-protein kinase 3 (Homo sapiens, UniProt Q13188).
T1 sequence (Q13188 whole entry): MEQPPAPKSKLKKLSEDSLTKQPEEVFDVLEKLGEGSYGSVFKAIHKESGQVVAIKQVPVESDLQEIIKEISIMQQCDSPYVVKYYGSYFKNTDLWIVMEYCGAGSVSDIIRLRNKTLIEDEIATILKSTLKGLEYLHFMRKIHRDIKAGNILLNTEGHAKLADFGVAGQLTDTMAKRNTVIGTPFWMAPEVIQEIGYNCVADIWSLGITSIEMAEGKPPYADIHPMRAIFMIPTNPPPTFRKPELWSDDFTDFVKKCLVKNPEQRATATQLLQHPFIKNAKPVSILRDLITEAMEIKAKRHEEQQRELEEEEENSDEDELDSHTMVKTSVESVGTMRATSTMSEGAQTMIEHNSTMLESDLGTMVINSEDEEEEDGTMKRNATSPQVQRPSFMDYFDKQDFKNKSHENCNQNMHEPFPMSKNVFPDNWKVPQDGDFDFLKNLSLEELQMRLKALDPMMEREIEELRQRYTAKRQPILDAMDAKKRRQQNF

Test [2] addresses Mitotic checkpoint serine/threonine-protein kinase BUB1 (Homo sapiens, UniProt O43683).
For test [3], the target named is Cyclin-dependent kinase 1 (Homo sapiens, UniProt P06493).
Sequence of Cyclin-dependent kinase 1 (P06493 whole entry): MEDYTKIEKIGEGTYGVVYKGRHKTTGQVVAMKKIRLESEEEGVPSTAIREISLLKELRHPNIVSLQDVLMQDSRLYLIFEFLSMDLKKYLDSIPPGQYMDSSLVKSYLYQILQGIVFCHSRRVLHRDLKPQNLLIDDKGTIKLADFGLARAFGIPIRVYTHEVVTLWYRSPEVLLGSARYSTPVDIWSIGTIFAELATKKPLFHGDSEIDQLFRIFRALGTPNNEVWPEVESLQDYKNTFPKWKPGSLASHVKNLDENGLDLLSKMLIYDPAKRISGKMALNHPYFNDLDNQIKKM
The target in test [4] is Tyrosine-protein kinase BTK (Homo sapiens, UniProt Q06187).
Sequence of Tyrosine-protein kinase BTK (Q06187 whole entry): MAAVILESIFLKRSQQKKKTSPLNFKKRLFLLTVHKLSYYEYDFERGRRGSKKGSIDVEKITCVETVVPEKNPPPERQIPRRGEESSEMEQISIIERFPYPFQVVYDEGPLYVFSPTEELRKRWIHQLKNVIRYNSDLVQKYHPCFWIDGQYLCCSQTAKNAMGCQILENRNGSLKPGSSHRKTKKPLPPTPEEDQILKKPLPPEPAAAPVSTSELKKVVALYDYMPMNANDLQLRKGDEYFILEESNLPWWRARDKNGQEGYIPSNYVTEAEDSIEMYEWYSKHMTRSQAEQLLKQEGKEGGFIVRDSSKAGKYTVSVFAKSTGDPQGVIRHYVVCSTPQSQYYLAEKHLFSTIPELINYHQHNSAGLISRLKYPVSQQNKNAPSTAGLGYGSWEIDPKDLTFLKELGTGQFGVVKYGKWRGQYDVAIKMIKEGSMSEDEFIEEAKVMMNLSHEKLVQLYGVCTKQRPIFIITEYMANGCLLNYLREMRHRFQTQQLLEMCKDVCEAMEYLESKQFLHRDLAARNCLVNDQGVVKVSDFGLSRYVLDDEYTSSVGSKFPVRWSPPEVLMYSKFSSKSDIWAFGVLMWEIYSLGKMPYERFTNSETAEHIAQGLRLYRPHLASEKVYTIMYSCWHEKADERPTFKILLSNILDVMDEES
For test [5], the target named is T2, ATP-dependent RNA helicase DDX42 (Homo sapiens, UniProt Q86XP3).
T2 sequence (Q86XP3 whole entry): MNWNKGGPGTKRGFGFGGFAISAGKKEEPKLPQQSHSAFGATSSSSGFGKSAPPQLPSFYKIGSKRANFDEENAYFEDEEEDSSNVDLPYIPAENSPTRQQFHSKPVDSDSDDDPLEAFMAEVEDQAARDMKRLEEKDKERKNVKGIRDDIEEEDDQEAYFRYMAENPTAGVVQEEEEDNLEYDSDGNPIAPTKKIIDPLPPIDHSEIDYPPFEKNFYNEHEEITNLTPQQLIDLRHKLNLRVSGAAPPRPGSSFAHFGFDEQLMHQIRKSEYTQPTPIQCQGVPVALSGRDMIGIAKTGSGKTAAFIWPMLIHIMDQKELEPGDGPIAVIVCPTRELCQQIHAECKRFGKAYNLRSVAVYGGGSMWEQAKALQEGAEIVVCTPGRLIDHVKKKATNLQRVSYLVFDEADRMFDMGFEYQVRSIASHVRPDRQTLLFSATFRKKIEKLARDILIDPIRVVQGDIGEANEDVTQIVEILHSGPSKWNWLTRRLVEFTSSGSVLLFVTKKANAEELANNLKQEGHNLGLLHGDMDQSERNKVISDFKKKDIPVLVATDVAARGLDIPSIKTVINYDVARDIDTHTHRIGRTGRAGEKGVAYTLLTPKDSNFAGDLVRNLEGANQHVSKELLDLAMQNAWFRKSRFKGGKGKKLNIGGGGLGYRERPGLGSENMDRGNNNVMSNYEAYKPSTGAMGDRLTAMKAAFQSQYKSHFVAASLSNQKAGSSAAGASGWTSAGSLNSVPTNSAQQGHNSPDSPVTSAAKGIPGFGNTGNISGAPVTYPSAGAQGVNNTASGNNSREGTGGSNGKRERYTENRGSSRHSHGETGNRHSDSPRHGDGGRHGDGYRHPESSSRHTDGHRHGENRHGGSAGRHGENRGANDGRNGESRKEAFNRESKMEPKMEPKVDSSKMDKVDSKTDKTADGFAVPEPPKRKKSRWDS

For test [6], the target named is T3, General transcription and DNA repair factor IIH helicase subunit XPD (Homo sapiens, UniProt P18074).
T3 sequence (P18074 whole entry): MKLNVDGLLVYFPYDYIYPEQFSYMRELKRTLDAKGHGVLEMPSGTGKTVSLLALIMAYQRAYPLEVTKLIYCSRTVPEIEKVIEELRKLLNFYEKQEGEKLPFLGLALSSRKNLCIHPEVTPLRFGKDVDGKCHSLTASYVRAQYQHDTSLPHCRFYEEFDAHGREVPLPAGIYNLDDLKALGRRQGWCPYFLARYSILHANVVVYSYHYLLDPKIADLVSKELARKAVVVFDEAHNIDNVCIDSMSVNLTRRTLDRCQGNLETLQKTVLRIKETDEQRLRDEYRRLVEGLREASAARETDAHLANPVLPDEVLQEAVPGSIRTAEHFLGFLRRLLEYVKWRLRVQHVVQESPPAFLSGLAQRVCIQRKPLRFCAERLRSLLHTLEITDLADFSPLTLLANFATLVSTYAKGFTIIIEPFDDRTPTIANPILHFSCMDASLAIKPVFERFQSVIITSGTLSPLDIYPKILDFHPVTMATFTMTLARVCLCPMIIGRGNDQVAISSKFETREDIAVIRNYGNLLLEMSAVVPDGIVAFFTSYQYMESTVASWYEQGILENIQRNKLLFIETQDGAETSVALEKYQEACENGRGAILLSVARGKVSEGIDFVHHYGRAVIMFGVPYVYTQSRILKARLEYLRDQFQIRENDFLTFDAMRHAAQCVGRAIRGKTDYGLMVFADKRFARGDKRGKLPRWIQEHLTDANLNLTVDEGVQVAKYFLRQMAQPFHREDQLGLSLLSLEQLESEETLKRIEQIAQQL
As to conditions: read-out: Kd apparent; k-562, colo 205, sk-n-be(2) and mv-4-11.

Test [7] addresses Tyrosine-protein kinase Fer (Homo sapiens, UniProt P16591).
A further test addresses T4, Aurora kinase A (Homo sapiens, UniProt O14965).
T4 sequence (O14965 whole entry): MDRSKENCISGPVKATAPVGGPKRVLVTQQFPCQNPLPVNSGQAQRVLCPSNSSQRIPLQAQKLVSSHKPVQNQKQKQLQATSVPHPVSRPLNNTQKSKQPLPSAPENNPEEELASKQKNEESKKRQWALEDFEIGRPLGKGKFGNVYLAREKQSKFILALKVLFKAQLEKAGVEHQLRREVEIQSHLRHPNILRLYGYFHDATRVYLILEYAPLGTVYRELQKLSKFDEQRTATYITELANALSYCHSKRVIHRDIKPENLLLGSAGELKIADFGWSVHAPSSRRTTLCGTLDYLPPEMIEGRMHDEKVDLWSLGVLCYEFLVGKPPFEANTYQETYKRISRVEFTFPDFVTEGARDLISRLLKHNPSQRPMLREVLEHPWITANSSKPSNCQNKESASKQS

The structures appear in SMILES notation. Active and inactive are the calls of the source. For most assays here, no stated cut-off is given here; in the data, actives have a measured Kd and inactives only a lower limit. Where only a bound is given, the exact number is not on record here.

Sequence of Tyrosine-protein kinase Fer (P16591 whole entry): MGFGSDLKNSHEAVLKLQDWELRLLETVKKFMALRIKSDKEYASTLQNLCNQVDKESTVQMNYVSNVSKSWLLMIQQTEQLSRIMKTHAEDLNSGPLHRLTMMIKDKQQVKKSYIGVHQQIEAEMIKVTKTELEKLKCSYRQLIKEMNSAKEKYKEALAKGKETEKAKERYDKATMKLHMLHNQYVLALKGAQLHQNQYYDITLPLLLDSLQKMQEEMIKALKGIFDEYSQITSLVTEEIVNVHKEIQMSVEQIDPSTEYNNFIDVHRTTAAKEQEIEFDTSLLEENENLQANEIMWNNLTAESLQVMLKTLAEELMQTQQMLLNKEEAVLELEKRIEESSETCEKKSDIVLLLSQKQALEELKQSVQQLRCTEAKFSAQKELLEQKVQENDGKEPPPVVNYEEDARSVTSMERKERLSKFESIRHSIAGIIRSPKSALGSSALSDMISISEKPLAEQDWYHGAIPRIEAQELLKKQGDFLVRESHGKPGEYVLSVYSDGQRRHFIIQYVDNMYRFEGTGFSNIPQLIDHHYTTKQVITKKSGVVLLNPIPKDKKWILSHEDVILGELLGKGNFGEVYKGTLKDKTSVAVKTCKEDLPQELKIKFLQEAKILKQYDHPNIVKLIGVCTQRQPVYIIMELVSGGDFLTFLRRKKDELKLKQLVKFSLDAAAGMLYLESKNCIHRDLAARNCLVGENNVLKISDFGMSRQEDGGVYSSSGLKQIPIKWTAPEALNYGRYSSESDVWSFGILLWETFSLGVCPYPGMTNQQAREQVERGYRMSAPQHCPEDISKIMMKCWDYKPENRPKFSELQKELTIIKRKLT
Sequence of Mitotic checkpoint serine/threonine-protein kinase BUB1 (O43683 whole entry): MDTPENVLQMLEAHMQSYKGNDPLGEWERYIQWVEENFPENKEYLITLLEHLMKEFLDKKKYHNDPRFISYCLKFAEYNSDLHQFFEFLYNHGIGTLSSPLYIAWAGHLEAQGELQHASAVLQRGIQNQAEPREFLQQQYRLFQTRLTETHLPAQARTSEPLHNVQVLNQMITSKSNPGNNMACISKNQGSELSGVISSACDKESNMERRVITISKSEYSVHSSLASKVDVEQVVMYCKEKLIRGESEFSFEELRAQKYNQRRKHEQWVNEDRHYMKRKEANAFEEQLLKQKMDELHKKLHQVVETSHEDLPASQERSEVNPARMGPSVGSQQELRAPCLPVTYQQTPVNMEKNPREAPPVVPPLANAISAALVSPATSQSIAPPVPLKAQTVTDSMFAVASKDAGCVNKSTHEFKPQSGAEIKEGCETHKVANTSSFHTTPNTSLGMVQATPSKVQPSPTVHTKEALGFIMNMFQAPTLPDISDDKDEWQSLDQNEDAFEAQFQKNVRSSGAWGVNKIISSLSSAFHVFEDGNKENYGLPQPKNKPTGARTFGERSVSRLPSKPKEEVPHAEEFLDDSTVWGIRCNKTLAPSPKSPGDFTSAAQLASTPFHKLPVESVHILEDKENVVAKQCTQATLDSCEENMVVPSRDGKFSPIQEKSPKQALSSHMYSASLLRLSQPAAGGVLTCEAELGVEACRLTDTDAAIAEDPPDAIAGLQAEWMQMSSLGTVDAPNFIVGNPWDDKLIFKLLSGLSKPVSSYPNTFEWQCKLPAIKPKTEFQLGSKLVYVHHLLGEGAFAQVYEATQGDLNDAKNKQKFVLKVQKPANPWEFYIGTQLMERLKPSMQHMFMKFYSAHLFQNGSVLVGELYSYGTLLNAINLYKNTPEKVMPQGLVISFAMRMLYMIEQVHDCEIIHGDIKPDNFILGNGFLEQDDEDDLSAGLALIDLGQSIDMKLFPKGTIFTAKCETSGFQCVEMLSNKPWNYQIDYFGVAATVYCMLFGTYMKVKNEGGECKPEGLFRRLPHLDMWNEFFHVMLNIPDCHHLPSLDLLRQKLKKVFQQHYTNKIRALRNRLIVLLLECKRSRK

For `CC(=O)c1cnc2ccc(-c3cc(Cl)c(O)c(Cl)c3)nc2c1N[C@H]1CC[C@H](CN(C)C)CC1`, the Kd in test [1] was 0.07 µM (active); in test [2], > 30 µM (inactive); in test [3], 0.288 µM (active); in test [4] it was 0.361 µM (active); in test [5], > 30 µM (inactive); in test [6], > 30 µM (inactive).

For `CCNC(=O)C#Cc1ccc2c(c1)NC(=O)/C2=C(\Nc1ccc(CN(C)C)cc1)c1ccccc1`, the Kd was 5.05 µM (active) in test [1]; > 30 µM (inactive) in test [2]; > 30 µM (inactive) in test [3]; 0.588 µM (active) in test [4]; 0.385 µM (active) in test [7]; > 30 µM (inactive) in test [5]. For the same compound, the Kd in test [6] was > 30 µM (inactive).

As to `COc1cc(Nc2ncc3c(n2)-c2ccc(Cl)cc2C(c2c(F)cccc2OC)=NC3)ccc1C(=O)O` [ALISERTIB], the Kd in test [2], in test [5] and in test [6] was > 30 µM (inactive) each time.

For `Cc1csc(-c2nnc(Nc3ccc(Oc4ncccc4-c4ccnc(N)n4)cc3)c3ccccc23)c1` [AMG-900], the Kd in test [1], in test [2], in test [3], in test [4], in test [7] and in test [5] was > 30 µM (inactive) each time. Moreover, the Kd in test [6] was > 30 µM (inactive).

As to `O=C(Nc1c[nH]nc1-c1nc2cc(CN3CCOCC3)ccc2[nH]1)NC1CC1` [AT-9283], the Kd in test [1] was > 30 µM (inactive); in test [2], 0.094 µM (active); in test [3], > 30 µM (inactive); in test [4], 0.537 µM (active); in test [5], > 30 µM (inactive); in test [6], > 30 µM (inactive).

As to `CNC(=O)c1ccccc1Sc1ccc2c(/C=C/c3ccccn3)n[nH]c2c1` [AXITINIB], the Kd in test [2], in test [3], in test [5] and in test [6] was > 30 µM (inactive) each time.

`NC(=O)Nc1cc(-c2cccc(F)c2)sc1C(=O)N[C@H]1CCCNC1` [AZD-7762]: the Kd in test [3] is > 30 µM (inactive); at Aurora kinase A, > 30 µM (inactive); in test [4] it was 3.07 µM (active); in test [6], > 30 µM (inactive).

Consider `CC(C)(C)c1nc(-c2cccc(NS(=O)(=O)c3c(F)cccc3F)c2F)c(-c2ccnc(N)n2)s1` [DABRAFENIB], for which the Kd in test [2] is > 30 µM (inactive); in test [3] it was 0.364 µM (active); on Aurora kinase A, > 30 µM (inactive); in test [7] it was > 30 µM (inactive); in test [5], > 30 µM (inactive); in test [6], > 30 µM (inactive).

As to `Cn1cc(C2=C(c3cn(C4CCN(Cc5ccccn5)CC4)c4ccccc34)C(=O)NC2=O)c2ccccc21` [ENZASTAURIN], the Kd in test [2], in test [3] and in test [6] was > 30 µM (inactive) in each case.

For `C[C@@H](Oc1cc(-n2cnc3ccc(CN4CCN(C)CC4)cc32)sc1C(N)=O)c1ccccc1C(F)(F)F` [GSK-461364], the Kd in test [2], in test [3], in test [5] and in test [6] was > 30 µM (inactive) throughout.

As for `CCn1cc(-c2ccnc3[nH]c(-c4cccc(CN(C)C)c4)cc23)c(-c2ccc(NC(=O)N(C)C)cc2)n1` [GSK-1070916], the Kd in test [1], in test [2], in test [3], in test [7] and in test [5] was > 30 µM (inactive) in each case.

With `O=C(Nc1cc(C(F)(F)F)cc(C(F)(F)F)c1)c1cc(Cl)ccc1O` [IMD-0354], the Kd (in test [2]; on Aurora kinase A; in test [4]; in test [7]; in test [5]; in test [6]) was > 30 µM (inactive) throughout.

As to `Cc1[nH]c(/C=C2\C(=O)Nc3ccccc32)c(C)c1CCC(=O)O` [ORANTINIB], the Kd in test [2], in test [5] and in test [6] was > 30 µM (inactive) throughout.

In the case of `NC(=O)c1c(OCc2c(F)cc(Br)cc2F)nsc1NC(=O)NCCCCN1CCCC1` [OSI-632], in test [6], the Kd is > 30 µM (inactive).

In the case of `CC(=O)NCC(=O)N1[C@@H]2CC[C@H]1c1ccc(Nc3ncc(C(F)(F)F)c(NC4CCC4)n3)cc12` [PF-03814735], the Kd in test [2], in test [5] and in test [6] was > 30 µM (inactive) in each case.

As for `CNC(=O)c1cc(Oc2ccc(NC(=O)Nc3cc(C(C)(C)C)nn3-c3ccc4ncccc4c3)c(F)c2)ccn1` [REBASTINIB], the Kd in test [1] is 12.1 µM (active); in test [2], > 30 µM (inactive); in test [3] it was 1.07 µM (active); on Aurora kinase A, > 30 µM (inactive); in test [4], 1.22 µM (active); in test [5], > 30 µM (inactive). Further, in test [6], the Kd was > 30 µM (inactive).

Regarding `O=C(NOCCO)c1cc(CN2OCCCC2=O)c(F)c(F)c1Nc1ccc(I)cc1F` [RO-4987655], the Kd in test [3], in test [5] and in test [6] was > 30 µM (inactive) in each case.

With `N#CC[C@H](C1CCCC1)n1cc(-c2ncnc3[nH]ccc23)cn1` [RUXOLITINIB], the Kd in test [2], in test [3] and in test [6] was > 30 µM (inactive) throughout.

Regarding `CCS(=O)(=O)c1cccc(-c2cc(C(=O)NC3CCN(C)CC3)c(C)c3[nH]c4ncc(C)cc4c23)c1` [TAK-901], the Kd was 2.76 µM (active) in test [1]; > 30 µM (inactive) in test [2]; > 30 µM (inactive) in test [3]; 0.328 µM (active) in test [4]; 0.574 µM (active) in test [7]; > 30 µM (inactive) in test [5].
